Assay results taken from patent US6197944A, “DNA molecules stabilized by modifications of the 3'-terminal phosphodiester linkage” (Integrated DNA Technologies, Inc., priority 1994, dated 2001).

How the values were obtained:
[1] = tested on: mouse globin mRNA (MA-15: mouse α-globin mRNA; CODMB-25: mouse β-globin mRNA); test: In vitro translation of globin mRNA in rabbit reticulocyte lysate (hybrid-arrested translation, role of RNaseH); type: biochemical; conditions: for inhibition of translation of the targeted mRNA: in words; for % Inhibition Of Globin Synthesis, +poly rA/oligo dT: with poly rA/oligo dT 500 ug/ml (RNaseH inhibitor); for % Inhibition Of Globin Synthesis, +poly rA/oligo dT / % Inhibition Of Globin Synthesis, -poly rA/oligo dT: CODMB-25 4 uM, 1 hour at 30° C.; for % Inhibition Of Globin Synthesis, -poly rA/oligo dT: without poly rA/oligo dT
Method: (§1) For the purpose of these experiments two oligonucleotides were synthesized: 5'-GAGCACCATGGTTTC, MA-15; and 5'-[…],(SEQ ID NO:2) CODMB-25. Both were prepared on a Beckman automated DNA synthesizer using the phophoramidite method. MA-15 is complementary to a sequence within mouse α-globin mRNA spanning the initiation codon. CODMB-25 hybridizes to a sequence within the coding region of mouse β-globin mRNA. Mouse globin mRNA was isolated from reticulocytes obtained from mice rendered anemic by treatment with phenylhydrazine as described by Goosens and Kan (Methods in Enzymology (Antonini, E., Rossi-Bernadi, L., and Chiancone, E., eds.) 76, 805-817, 1981). In vitro translation reactions were carried out in the rabbit reticulocyte lysate system. The reticylocyte lysates used were purchased from ProMega Biotec, and contain RNaseH. Translation reactions were programmed with 1 ug of total mouse reticulocyte RNA. The reactions were allowed to proceed for 1 hour at 30° C. Each sample contained 45 uCi of [^35 S]methionine (Amersham) in a total volume of 25 ul. Protein synthesis was measured by incorporation of [^35 S]methionine into material precipitatable in 10% trichloracetic acid. In control reactions in the absence of oligonucleotide, synthesis of β globin accounts for 60% of the incorporated counts; α globin synthesis accounts for 40% of the radioactivity incorporated into protein. Reactions were carried out in both the presence and absence of poly rA/oligo dT (500 ug/ml).

[2] = tested on: c-myc mRNA; test: Inhibition of expression of c-myc in MOPC 315 cells (Northern blot); type: cell-based, murine; conditions: either 1 or 5 micromolar, 4 hours at 37° C.
Method: MOPC 315 cells were maintained in RPMI 1640 culture media containing 10% fetal calf serum at 37° C. with 7% CO2. Log phase MOPC 315 cells were harvested by centrifugation (250×g for 19 minutes at 23° C.) and resuspended at a density of 5×10^6 /ml in HB101 serum-free medium (DuPont). One ml aliquots of this cell suspension were incubated in the presence of oligonucleotide for 4 hours at 37° C. and 7% CO2. Additional one ml aliquots were incubated concommitantly without oligonucleotide. Cells from each group were then collected by centrifugation. Total cellular RNA was prepared as described by Chirgwin et al., Biochemistry 18, 5294-5299 (1979), and analyzed by Northern blots as described in Example 7. The filters were probed with an oligonucleotide complementary to c-myc mRNA labeled with ^32 P using polynucleotide kinase and γ^32 P-ATP as in previous examples.

[3] = tested on: β-globin mRNA; test: In vitro translation in rabbit reticulocyte lysate, β-globin synthesis; type: biochemical, mouse; conditions: in words; MA-15 complementary to 12 of 15 residues of β-globin mRNA
Method: as §1, with “Reactions were carried out in both the presence and absence of poly rA/oligo dT (500 ug/ml).” left out

[4] = type: in vitro ADME, human; conditions: 37° C., 15 minutes to 2 hours, heparinized blood
Method: The oligonucleotide MA-15 described in Example 1 was radioactively labeled with ^32 P at the 5'-end of the molecule using γ^32 P-adenosine triphosphate (γ ^32 P-ATP, Amersham) and T4 polynucleotide kinase (Bethesda Research Laboratories):
where the asterisk represents the radiolabel. Separately, a radiolabeled derivative was prepared in which ^32 P was introduced at the 3'most internucleotide link using α^32 P-deoxycytidine triphosphate (dCTP) and DNA polymerase I (Bethesda Research Laboratories):
The reaction catalyzed by DNA polymerase I is between 5'-GAGCACCATGGTTT and dCTP and requires the complementary DNA strand as a template. A 50 fold excess of unlabeled MA-15 was added after the reaction to insure that the labeled derivative is single stranded. These procedures are standard methods for radiolabeling DNA fragments, see for example, Maniatis, T., Fritsch, E. F., and Sambrook, J., Molecular Cloning: A Laboratory Manual, Cold Spring Harbor Laboratory, New York, pp. 114-115 and 122-126, 1982, which is incorporated herein by reference. […]
The modified oligonucleotide was labeled with ^32 P at the 5'-terminal OH group using γ^32 P-ATP and T4 polynucleotide kinase as described in Example 3. […] Aliquots were removed at various times and analyzed by polyacrylamide gel electrophoresis. […]

[5] = Degradation of oligonucleotide in K562 cell extracts; type: in vitro ADME, human
Method: The purpose of these studies was to determine the pathways by which oligonucleotides are degraded by nucleases present within human cells. Radiolabeled derivatives of MA-15 were prepared as in Example 3. Degradation of the oligonucleotide was studied in extracts prepared from the human erythroleukemia cell line K562. The K562 cell line was first isolated by Lozzio, C. B., and Lozzio, B. B., Blood (1975) 45, 321-334, and has been studied extensively as a model for red cell differentiation. The cells were suspended in 10 mM tris buffer pH 7.4 with 5 mM MgCl2, 1 mM CaCl2, 100 mM NaCl, and 0.1% Triton® X-100 (polyethylene glycol 4-isooctylphenyl ether, and homogenized with a cold motor driven teflon pestle homogenizer for 30 seconds. Cell membranes and organelles were further disrupted by sonication by five 15 second bursts using a Biosonic sonifier set on full power. Remaining cell debris was removed from the extracts by centrifugation for 5 minutes at 12,000×g.
The radiolabeled oligonucleotide was incubated in K562 cell extracts under the same conditions as decribed in Example 3 and the degradation products analyzed by polyacrylamide gel electrophoresis. […] The half-life for cleavage of the 3'-terminal internucleotide link was 2 minutes. […] The half-life for cleavage of the 5'-terminal nucleotide unit from the chain by this mechanism was 20 minutes.
The derivative of MA-15 described in Example 5 in which the 3'-terminal internucleotide link was modified as a 2,2,2-trichloro-1,1-dimethylethyl phosphotriester was also used in this study. Extracts from K562 cells were prepared as in Example 4. The modified oligonucleotide was incubated in the cell extracts at 37° C. Aliquots were removed at various times, and the products of degradation were analyzed by polyacrylamide gel electrophoresis.

[6] = tested on: mouse α-globin mRNA; test: Cleavage of globin mRNA by E. coli RNaseH after hybridization with oligonucleotide (Northern blot); type: biochemical; conditions: 1.1 nanomoles oligonucleotide in 22 microliters, 2 units E. coli RNaseH, 30 minutes at 37° C.
Method: Mouse globin mRNA was isolated from mice rendered anemic by treatment with phenylhydrazine as described in Example 1. Three oligonucleotides were compared in this study; MA-15, the derivative of MA-15 utilized in Examples 5 and 6 in which the 3'-terminal internucleotide link is modified as a trichlorodimethylethyl phosphotriester (MA-15-TCDM), and a derivative further modified at the 5'-terminal OH group with naphthylisocyanate (NPH-MA-15-TCDM). Mouse globin mRNA (2 micrograms) was added to 1.1 nanomoles of the oligonucleotide in a final volume of 22 microliters containing 10 mM tris-HCl buffer at pH 7.5, 5 mM MgCl2, 25 mM NaCl, and 1 mM dithiothreitol. The reactions were initiated by the addition of 2 units of E. coli RNaseH, and were allowed to proceed for 30 minutes at 37° C. The reactions were stopped by extraction of the samples with a 1:1 mixture of phenol and chloroform. The mRNA species remaining after digestion with RNaseH were isolated by precipitation with ethanol and analyzed on Northern blots.
The RNA samples were reacted with 1 M glyoxal in a 1:1 (volume/volume) mixture of 10 mM sodium phosphate buffer at pH 6.5 and dimethylsulfoxide for 1 hour at 50° C., and then electrophoresed on a 1.5% agarose gel. The RNAs were transferred from the gel to a Gene Screen Plus filter (DuPont-NEN) by capillary blotting according to the method described by the manufacturer. […]

Substance	inhibition of translation of the targeted mRNA [1]	% Inhibition Of Globin Synthesis, +poly rA/oligo dT [1] [%]	% Inhibition Of Globin Synthesis, -poly rA/oligo dT [1] [%]	effect on c-myc mRNA levels [2]	inhibition of β-globin synthesis [3]	pathway of degradation in human blood [4]	degradation by 5'- to 3'-exonucleolytic activity in K562 cell extracts ([5]; K562 cell extracts)	primary pathway of degradation in K562 cell extracts ([5]; K562 cell extracts)	rate of degradation compared with that in blood ([5]; K562 cell extracts vs blood)	half-life for cleavage of the 3'-terminal internucleotide link ([5]; K562 cell extracts, 3' to 5' exonucleolytic activity, 37° C.) [min]	half-life for cleavage of the 5'-terminal nucleotide unit from the chain ([5]; K562 cell extracts, 5'- to 3'-exonucleolytic activity, 37° C.) [min]	decrease in intensity of the α-globin mRNA band (RNaseH cleavage) [6]
5'-TGTCCAAGTGATTCAGGCCATCGTT [CODMB-25]	very effectively inhibited translation of the targeted mRNA	5	61	–	–	–	–	–	–	–	–	–
5'-T CCCTTCATCCCGAAGTT C (antisense TCCCTTCATCCCGAAGTTC; TCDM group attached, position not given here) [anti-albumin oligonucleotide, oligonucleotide complementary to human albumin mRNA; ( ) again represents the TCDM group]	–	–	–	no effect	–	–	–	–	–	–	–	–
5'-GAGCACCATGGTTTC [MA-15]	very effectively inhibited translation of the targeted mRNA	3	51	–	inhibits β-globin synthesis to some extent	sequential exonucleolytic cleavage of the strand from the 3'-toward the 5'-end of the chain	A slower 5'- to 3'-exonucleolytic activity was also observed	3' to 5' exonucleolytic activity	much faster than that in blood	2	20	marked decrease in the intensity of the band for α-globin mRNA
